Assay results reported in patent publication US20150191462A1, “PYRROLIDINE DERIVATIVES AND THEIR USE AS COMPLEMENT PATHWAY MODULATORS” (priority 2012, published 2015).

Target: Recombinant human factor D (Homo sapiens, UniProt P00746)
Assay: Human Complement Factor D Assay: Method 1
Assay type: biochemical
Conditions: Factor D inhibition, 10 nM factor D, Z-Lys-thiobenzyl substrate, fluorescence readout
Method: Human Complement Factor D Assay: Method 1 Recombinant human factor D (expressed in E. coli and purified using standard methods) at 10 nM concentration is incubated with test compound at various concentrations for 1 hour at room temperature in 0.1 M Hepes buffer, pH 7.5, containing 1 mM MgCl2, 1 M NaCl and 0.05% CHAPS. […] The increase in fluorescence is recorded at excitation of 485 nm and emission at 535 nm in a microplate spectrofluorimeter. IC50 values are calculated from percentage of inhibition of complement factor D-activity as a function of test compound concentration.

Recombinant human factor D, sequence (P00746 26-253): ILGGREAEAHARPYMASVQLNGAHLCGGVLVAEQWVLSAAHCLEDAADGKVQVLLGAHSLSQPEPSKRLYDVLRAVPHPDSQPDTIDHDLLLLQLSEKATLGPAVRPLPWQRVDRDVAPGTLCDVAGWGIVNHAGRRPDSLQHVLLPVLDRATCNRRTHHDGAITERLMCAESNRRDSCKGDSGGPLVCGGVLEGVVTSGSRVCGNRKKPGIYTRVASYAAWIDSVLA

IC50 | Structure (SMILES)
0.004 µM | NC(=O)c1nn(CC(=O)N2[C@@H]3C[C@@H]3C[C@H]2C(=O)Nc2cccc(Cl)n2)c2ccccc12 [Example 20, 1{2-[(1R,3S,5R)-3-(6-Chloro-pyridin-2-ylcarbamoyl)-2-aza-bicyclo[3.1.0]hex-2-yl]-2-oxo-ethyl}-1H-indazole-3-carboxylic acid amide]
0.007 µM | NC(=O)c1nn(CC(=O)N2C[C@H](F)C[C@H]2C(=O)Nc2cccc(Br)n2)c2cnc(CF)cc12 [Example 24, 1-(2-((2S,4R)-2-(6-bromopyridin-2-ylcarbamoyl)-4-fluoropyrrolidin-1-yl)-2-oxoethyl)-5-(fluoromethyl)-1H-pyrazolo[3,4-c]pyridine-3-carboxamide]
0.006 µM | Cc1cc2c(C(N)=O)nn(CC(=O)N3[C@@H]4C[C@@H]4C[C@H]3C(=O)Nc3cccc(C(F)(F)F)n3)c2c(C)n1 [Example 29, 5,7-dimethyl-1-(2-oxo-2-((1R,3S,5R)-3-((6-(trifluoromethyl)pyridin-2-yl)carbamoyl)-2-azabicyclo[3.1.0]hexan-2-yl)ethyl)-1H-pyrazolo[3,4-c]pyridine-3-carboxamide]
0.01 µM | NC(=O)n1cc(NC(=O)N2C[C@H](F)[C@H](F)[C@H]2C(=O)Nc2cccc(Br)n2)c2ccccc21 [Example 38, (2R,3R,4S)-N2-(6-bromopyridin-2-yl)-N1-(1-carbamoyl-1H-indol-3-yl)-3,4-difluoropyrrolidine-1,2-dicarboxamide]
0.005 µM | Cc1ccc2c(C(N)=O)nn(CC(=O)N3[C@@H]4C[C@@H]4C[C@H]3C(=O)Nc3cccc(Br)n3)c2c1 [Example 8, 1-{2-[(1R,3S,5R)-3-(6-Bromo-pyridin-2-ylcarbamoyl)-2-aza-bicyclo[3.1.0]hex-2-yl]-2-oxo-ethyl}-6-methyl-1H-indazole-3-carboxylic acid amide]
0.024 µM | NC(=O)c1nn(CC(=O)N2[C@@H]3C[C@@H]3C[C@H]2C(=O)Nc2cccc(Br)n2)c2nnccc12 [Example 3, 1-{2-[(1R,3S,5R)-3-(6-Bromo-pyridin-2-ylcarbamoyl)-2-aza-bicyclo[3.1.0]hex-2-yl]-2-oxo-ethyl}-1H-pyrazolo[3,4-c]pyridazine-3-carboxylic acid amide]
0.02 µM | NC(=O)n1cc(NC(=O)N2CCS[C@H]2C(=O)Nc2cccc(Br)n2)c2ccccc21 [Example 39, (S)-N2-(6-bromopyridin-2-yl)-N3-(1-carbamoyl-1H-indol-3-yl)thiazolidine-2,3-dicarboxamide]
0.018 µM | CCc1cc2c(C(N)=O)nn(CC(=O)N3[C@@H]4C[C@@H]4C[C@H]3C(=O)Nc3cccc(C(F)(F)F)n3)c2cn1 [Example 2, 5-Ethyl-1-{2-oxo-2-[(1R,3S,5R)-3-(6-trifluoromethyl-pyridin-2-ylcarbamoyl)-2-aza-bicyclo[3.1.0]hex-2-yl]-ethyl}-1H-pyrazolo[3,4-c]pyridine-3-carboxylic acid amide]
0.004 µM | NC(=O)c1nn(CC(=O)N2[C@@H]3C[C@@H]3C[C@H]2C(=O)Nc2cccc(Br)n2)c2cnc(C3CC3)cc12 [Example 5, 1-{2-[(1R,3S,5R)-3-(6-Bromo-pyridin-2-ylcarbamoyl)-2-aza-bicyclo[3.1.0]hex-2-yl]-2-oxo-ethyl}-5-cyclopropyl-1H-pyrazolo[3,4-c]pyridine-3-carboxylic acid amide]
0.005 µM | COc1cc(Br)nc(NC(=O)[C@@H]2C[C@H]3C[C@H]3N2C(=O)Cn2nc(C(N)=O)c3ccccc32)c1 [Example 22, 1-{2-[(1R,3S,5R)-3-(6-Bromo-4-methoxy-pyridin-2-ylcarbamoyl)-2-aza-bicyclo[3.1.0]hex-2-yl]-2-oxo-ethyl}-1H-indazole-3-carboxylic acid amide]
0.038 µM | CC(=O)c1nn(CC(=O)N2[C@@H]3C[C@@H]3C[C@H]2C(=O)Nc2cccc(OC(F)F)n2)c2ccc(OCc3ncccn3)cc12 [Example 6, (1R,3S,5R)-2-{2-[3-Acetyl-5-(pyrimidin-2-ylmethoxy)-indazol-1-yl]-acetyl}-2-aza-bicyclo[3.1.0]hexane-3-carboxylic acid (6-difluoromethoxy-pyridin-2-yl)-amide]

Second part, the compound before the results:

Structure (SMILES) | IC50
NC(=O)c1nn(CC(=O)N2[C@@H]3C[C@@H]3C[C@H]2C(=O)Nc2cccc(I)n2)c2ccccc12 [Example 21, 1-{2-[(1R,3S,5R)-3-(6-Iodo-pyridin-2-ylcarbamoyl)-2-aza-bicyclo[3.1.0]hex-2-yl]-2-oxo-ethyl}-1H-indazole-3-carboxylic acid amide] | 0.003 µM
NC(=O)c1nn(CC(=O)N2[C@@H]3C[C@@H]3C[C@H]2C(=O)Nc2cncc(C(F)(F)F)n2)c2ccccc12 [Example 9, 1-{2-Oxo-2-[(1R,3S,5R)-3-(6-trifluoromethyl-pyrazin-2-ylcarbamoyl)-2-aza-bicyclo[3.1.0]hex-2-yl]ethyl}-1H-indazole-3-carboxylic acid amide] | 0.032 µM
NC(=O)n1cc(NC(=O)N2[C@@H]3C[C@@H]3C[C@H]2C(=O)Nc2cncc(C(F)(F)F)n2)c2ccccc21 [Example 36, (1R,3S,5R)-2-Aza-bicyclo[3.1.0]hexane-2,3-dicarboxylic acid 2-[(1-carbamoyl-1H-indol-3-yl)-amide] 3-[(6-trifluoromethyl-pyrazin-2-yl)-amide]] | 0.055 µM
NC(=O)c1nn(CC(=O)N2[C@@H]3C[C@@H]3C[C@H]2C(=O)Nc2cncc(Br)n2)c2ncccc12 [Example 1, 1-{2-[(1R,3S,5R)-3-(6-Bromo-pyrazin-2-ylcarbamoyl)-2-aza-bicyclo[3.1.0]hex-2-yl]-2-oxo-ethyl}-1H-pyrazolo[3,4-b]pyridine-3-carboxylic acid amide] | 0.019 µM
CNC(=O)c1nn(CC(=O)N2[C@@H]3C[C@@H]3C[C@H]2C(=O)Nc2cccc(Br)n2)c2ccccc12 [Example 26, 1-(2-((1R,3S,5R)-3-((6-bromopyridin-2-yl)carbamoyl)-2-azabicyclo[3.1.0]hexan-2-yl)-2-oxoethyl)-N-methyl-1H-indazole-3-carboxamide] | 0.04 µM
C[C@@]1(F)C[C@@H](C(=O)Nc2cccc(Br)n2)N(C(=O)Cn2nc(C(N)=O)c3ccccc32)C1 [Example 19, 1-{2-[(2S,4R)-2-(6-Bromo-pyridin-2-ylcarbamoyl)-4-fluoro-4-methyl-pyrrolidin-1-yl]-2-oxo-ethyl}-1H-indazole-3-carboxylic acid amide] | 0.011 µM
CO[C@H]1[C@@H](C(=O)Nc2cccc(Br)n2)N(C(=O)Cn2nc(C(C)=O)c3ccncc32)C[C@@H]1F [Example 18, (2S,3S,4S)-1-[2-(3-Acetyl-pyrazolo[3,4-c]pyridin-1-yl)-acetyl]-4-fluoro-3-methoxy-pyrrolidine-2-carboxylic acid (6-bromo-pyridin-2-yl)-amide] | 0.007 µM
NC(=O)c1nn(CC(=O)N2[C@@H]3C[C@@H]3C[C@H]2C(=O)Nc2cccc(Br)n2)c2ccncc12 [Example 10, 1-{2-[(1R,3S,5R)-3-(6-Bromo-pyridin-2-ylcarbamoyl)-2-aza-bicyclo[3.1.0]hex-2-yl]-2-oxo-ethyl}-1H-pyrazolo[4,3-c]pyridine-3-carboxylic acid amide] | 0.009 µM
NC(=O)c1nn(CC(=O)N2[C@@H]3C[C@@H]3C[C@H]2C(=O)Nc2cccc(Br)n2)c2cc(F)ccc12 [Example 11, 1-{2-[(1R,3S,5R)-3-(6-Bromo-pyridin-2-ylcarbamoyl)-2-aza-bicyclo[3.1.0]hex-2-yl]-2-oxo-ethyl}-6-fluoro-1H-indazole-3-carboxylic acid amide] | 0.005 µM
NC(=O)c1nn(CC(=O)N2C3CC(C3)C2C(=O)Nc2cccc(Br)n2)c2ccccc12 (stereo not drawn) [Example 28, N-(6-bromopyridin-2-yl)-2-(2-(3-carbamoyl-1H-indazol-1-yl)acetyl)-2-azabicyclo[2.1.1]hexane-3-carboxamide] | 0.12 µM
CC(=O)c1nn(CC(=O)N2[C@@H]3C[C@@H]3C[C@H]2C(=O)Nc2cncc(C(F)(F)F)n2)c2ccccc12 [Example 16, (1R,3S,5R)-2-[2-(3-Acetyl-indazol-1-yl)-acetyl]-2-aza-bicyclo[3.1.0]hexane-3-carboxylic acid (6-trifluoromethyl-pyrazin-2-yl)-amide] | 0.017 µM
NC(=O)c1nn(CC(=O)N2CCS[C@H]2C(=O)Nc2cccc(Br)n2)c2ccccc12 [Example 25, (S)-N-(6-bromopyridin-2-yl)-3-(2-(3-carbamoyl-1H-indazol-1-yl)acetyl)thiazolidine-2-carboxamide] | 0.01 µM
C[C@@]12C[C@@H](C(=O)Nc3cccc(Br)n3)N(C(=O)Nc3cn(C(N)=O)c4ccccc34)[C@@H]1C2 [Example 37, (1R,3S,5R)-5-Methyl-2-aza-bicyclo[3.1.0]hexane-2,3-dicarboxylic acid 3-[(6-bromo-pyridin-2-yl)-amide] 2-[(1-carbamoyl-1H-indol-3-yl)-amide]] | 0.008 µM
Cc1ncc(NC(=O)[C@@H]2C[C@H]3C[C@H]3N2C(=O)Cn2nc(C(N)=O)c3ccccc32)nc1Br [Example 7, 1-{2-[(1R,3S,5R)-3-(6-Bromo-5-methyl-pyrazin-2-ylcarbamoyl)-2-aza-bicyclo[3.1.0]hex-2-yl]-2-oxo-ethyl}-1H-indazole-3-carboxylic acid amide] | 0.006 µM
C[C@@]1(F)C[C@@H](C(=O)Nc2cccc(Br)n2)N(C(=O)Nc2cn(C(N)=O)c3ccccc23)C1 [Example 34, (2S,4R)-4-Fluoro-4-methyl-pyrrolidine-1,2-dicarboxylic acid 2-[(6-bromo-pyridin-2-yl)-amide] 1-[(1-carbamoyl-1H-indol-3-yl)-amide]] | 0.014 µM
NC(=O)n1cc(NC(=O)N2CCC[C@H]2C(=O)Nc2cccc(Br)n2)c2ccccc21 [Example 35, (S)-Pyrrolidine-1,2-dicarboxylic acid 2-[(6-bromo-pyridin-2-yl)-amide]-1-[(1-carbamoyl-1H-indol-3-yl)-amide]] | 0.02 µM
